# Measurements taken from patent US6608045B2 (priority 1998, dated 2003).
# What was measured:
# [1] = test system: cell surface antigen CD69; assay: Activation-induced CD69 expression in Jurkat T cells, flow cytometry; format: cell-based, human; conditions: 1 μg/ml, OKT-3 + PMA, 20 hours
# Description: 1 μg/ml of tautomycetin was added to 1×10^6 of Jurkat T cells, which were stimulated by 10 μg/ml of OKT-3 monoclonal antibody and 50 ng/ml of PMA, and the cells were incubated for 20 hours. Monoclonal antibody against CD69(anti-CD69 mAb) was treated to the cells to carry out color-reaction and analysed by flow cytometry.
# [2] = test system: interleukin-2 receptor(IL-2R); assay: Activation-induced interleukin-2 receptor expression on Jurkat T cell surface, flow cytometry; format: cell-based, human; conditions: 1 μg/ml, OKT-3 + PMA
# Description: To investigate the suppressive activity against interleukin-2 receptor(IL-2R) expression on the cell surface, 1×10^6 of Jurkat T cell treated with 1 μg/ml of tautomycetin was activated by OKT-3 monoclonal antibody and PMA, and color-developed by the aid of monoclonal antibody against IL-2R(anti IL-2R mAb), then analysed by flow cytometry.
# IL-2 expression [3] = assay: IL-2 expression reporter (NF-AT/IL-2 promoter β-galactosidase) in transfected Jurkat T cells stimulated by PMA and ionomycin; format: cell-based, human
# From the text: The suppressive activity of tautomycetin against the expression of interleukin-2(IL-2), which plays a crucial role in the immune system, was investigated by treating T-cell proliferating factors such as phorbol-12-myristate-13-acetate(PMA) and ionomycin, which activate protein kinase C to increase the level of diacylglycerol and Ca^2+ in cells: First, to monitor the IL-2 expression level indirectly, transfected Jurkat T cells where the expression of β-galactosidase is driven by the multiple NF-AT(nuclear transcriptional activator) binding sites upstream of minimal IL-2 promoter, were employed and the cells were resuspended in RPMI medium containing 10% fetal bovine serum, 2 mM L-glutamine and 100 unit of penicillin. 1×10^5 of transfected Jurkat T cells were aliquoted to 96-wll microplate, and incubated for 24 hours with the 4 μM ionomycin and 64 nM PMA, while changing the concentration of tautomycetin. Then, centrifugation was carried out to harvest cells, and washed twice with phosphate-buffered saline(PBS). 150 μl of β-galactosidase detecting solution(containing 0.1% Triton X-100, 200 mM sodium phosphate, 2 mM MgCl2, 100 mM β-mercaptoethanol, 1.33 mg/ml ONPG) was added to each well and incubated at 37° C. for 1 hour. 100 μl of 1M sodium carbonate was added to stop the reaction and measured the suppressive activity of tautomycetin against the IL-2 expression by spectrophotometry at a wavelength of 410 nm.
# [4] = test system: tyrosine phosphorylation of intracellular proteins involved in TcR-mediated signal transduction; assay: Immunoblot of tyrosine phosphorylation in CD8-ζ transfected Jurkat T cells stimulated by OKT-8; format: cell-based, human; conditions: 1 μg/ml, 10 hours, Jurkat T CD8-ζ transfectants, OKT-8 stimulation
# Description: The suppressive activity of tautomycetin against the signal transduction around the membrane was investigated by determining the suppressive activity against the tyrosine phosphorylation of intracellular protein: To analyse the pathway of signal transduction mediated by TcR, Jurkat T cells which were transfected with a recombinant gene fragment, CD8-ζ chimeric DNA, harboring the ecto+transmembrane domain of CD8 and endomembrane domain of CD3-ζ chain, were cultured in RPMI medium containing 10% fetal bovine serum, 2 mM L-glutamine and 100 unit of penicillin. 1 μg/ml of tautomycetin was treated to 1×10^6 of Jurkat T cell transfectants and incubated for 10 hours, then centrifugation was carried out to harvest cells. The cells were washed twice with PBS and then stimulated by 10 μg/ml of OKT-8 and 10 μg/ml of the rabbit anti-mouse IgG antibody. The tyrosine phosphorylation was detected by immunoblot where the protein was isolated by 12.5% SDS-polyacrylamide gel electrophoresis and transferred to Immunobilon-P membrane(Millipore, U.S.A.). The phosphorylated tyrosine residue of intracellular protein or ZAP-70 protein was detected by the treatment of monoclonal antibody 4G10(Upstate Biotech Inc., U.S.A) or monoclonal antibody against ZAP-70(Zymed, U.S.A.), respectively. […]
# [5] = test system: graft rejection in heart transplantation; assay: Heart graft experiment (Lewis rat donor, Wistar rat recipient), heartbeat by palpation; format: in vivo
# [6] = test system: T-cell proliferation in mixed lymphocyte reaction (splenocytes of Balb/C and C57BL/6 mouse); assay: Mouse mixed lymphocyte reaction (MLR), [3H]-thymidine labelling; format: cell-based; conditions: 72 hours + 24 hours [3H]-thymidine
# Description: After the mixed cell culture was incubated at 37° C. for 72 hours, under an environment of 5% CO2, [^3H]-thymidine was added to the plate and further incubated for 24 hours to investigate the suppressive activity against T-cell proliferation by the degree of thymidine labelling.
# Aspergillus niger = assay: Antimicrobial activity by agar diffusion method (paper disc); format: cell-based
# Description: The antimicrobial activity of tautomycetin prepared in Example 3 was measured by agar diffusion method. 1×10^8/ml of spore suspension of Aspergillus niger was mixed with glucose-yeast extract agar medium and a paper disc containing tautomycetin was put on the agar plate.
# [7] = test system: tyrosine phosphorylation of intracellular proteins (BcR signal transduction); assay: Immunoblot of tyrosine phosphorylation in CD8-Igα/CD8-Igβ transfected BJAB cell (human B-cell); format: cell-based; conditions: BJAB transfectants, stimulation by monoclonal antibody against BcR
# IL-2 expression [8] = assay: IL-2 expression reporter (NF-AT/IL-2 promoter β-galactosidase) in transfected Jurkat T cells stimulated by OKT-3 (TcR-mediated) and PMA; format: cell-based, human
# Description: Monoclonal antibody OKT-3, which binds specifically to ε-chain of T-cell receptor(TcR)-CD3 complex, induces IL-2 expression and specific T-cell proliferation by activating TcR-mediated signal transduction. In this regard, the suppressive activity of tautomycetin against the expression of IL-2 stimulated via TcR was investigated: First, 10 μg of goat anti-mouse IgG was immobilized on 96-well microplate in an ELISA coating buffer(pH 9.0) and 10 μg of monoclonal antibody OKT-3 was also immobilzed thereon. To monitor the IL-2 expression level indirectly, transfected Jurkat T cells where the expression of β-galactosidase is driven by the multiple NF-AT(nuclear transcriptional activator) binding sites upstream of minimal IL-2 promoter, were employed and the cells were resuspended in RPMI medium containing 10% fetal bovine serum, 2 mM L-glutamine and 100 unit of penicillin. 1×10^5 of transfected Jurkat T cells were aliquoted to 96-well microplate, and incubated for 24 hours in a medium containing 64 nM PMA while changing the concentration of tautomycetin. Then, centrifugation was carried out to harvest cells, and washed twice with PBS. 150 μl of β-galactosidase detecting solution(containing 0.1% Triton X-100, 200 mM sodium phosphate, 2 mM MgCl2, 100 mM β-mercaptoethanol, 1.33 mg/ml ONPG) was added to each well and after 1 hour, 100 μl of 1M sodium carbonate was added to stop the reaction and measured the suppressive activity of tautomycetin against the IL-2 expression by spectrophotometry at a wavelength of 410 nm.
substance,measurement,setting,value
tautomycetin,activation-induced expression of cell surface antigen CD69,[1],suppresses the expression of cell surface antigen CD69
same,activation-induced expression of IL-2R on the cell surface,[2],suppresses the expression of IL-2R on the cell surface more effectively than cyclosporin A
same,"IC50, suppressive activity against IL-2 expression","IL-2 expression [3]; Jurkat T transfectants, 4 μM ionomycin and 64 nM PMA, 24 hours",3 ng/mL
same,suppressive activity against IL-2 expression relative to cyclosporin A,IL-2 expression [3]; PMA + ionomycin,6 times
same,Suppressive Activity against IL-2 expression,"IL-2 expression [3]; concentration 0.001 μg/ml, PMA + ionomycin",12.8
same,Suppressive Activity against IL-2 expression,"IL-2 expression [3]; concentration 0.01 μg/ml, PMA + ionomycin",83.9
same,Suppressive Activity against IL-2 expression,"IL-2 expression [3]; concentration 0.1 μg/ml, PMA + ionomycin",88
same,Suppressive Activity against IL-2 expression,"IL-2 expression [3]; concentration 1 μg/ml, PMA + ionomycin",98
same,"tyrosine phosphorylation of intracellular proteins (TcR-mediated signal transduction), except for ZAP-70",[4],inhibited
same,"concentration sustaining the heart movement, as fraction of cyclosporin A","[5]; i.p., injection formula of Example 11",1/50
same,"concentration sustaining the heart movement, as fraction of cyclosporin A","[5]; i.v., injection formula of Example 12",1/500
same,IC50,[6],43 nM
same,minimum inhibitory concentration(MIC),"Aspergillus niger; 48 hours at 28° C., size of growth inhibitory zone",less than 1 μg/ml
same,antimicrobial strength relative to cyclosporin A,Aspergillus niger; MIC comparison,10 times
same,tyrosine phosphorylation of intracellular proteins in B-cell,[7],does not inhibit
same,"IC50, suppressive activity against IL-2 expression","IL-2 expression [8]; Jurkat T transfectants, immobilized OKT-3 and 64 nM PMA, 24 hours",6.6e-06 ng/mL
same,suppressive activity against IL-2 expression relative to cyclosporin A,IL-2 expression [8]; OKT-3 + PMA,100 times
same,Suppressive Activity against IL-2 expression,"IL-2 expression [8]; concentration 10^−7 μg/ml, OKT-3 + PMA",74.8
same,Suppressive Activity against IL-2 expression,"IL-2 expression [8]; concentration 10^−8 μg/ml, OKT-3 + PMA",46.8
same,Suppressive Activity against IL-2 expression,"IL-2 expression [8]; concentration 10^−9 μg/ml, OKT-3 + PMA",37.5
